Key:
Malignant Hyperthermia = conditions: in vivo; cited from earlier work
[1] = test system: apoptotic nuclei in the cortex of rats given 5 mg/kg kainic acid; conditions: quotient A/B as defined in the patent
Description: In the context of this patent, we define “therapeutic index” of a therapeutic drug (or mixture) to be the quotient A/B, where A and B are defined as follows: A is the LD50 (dose yielding 50% lethality) of the drug when given intraperitoneally to rats; and B is the dose of the drug that when given i.p. yields 50% reduction of apoptotic nuclei in the cortex of rats given 5 mg/kg kainic acid, according to the protocol described by Popescu et al. in [J. Cell.

cell culture = conditions: cited from earlier work
dissolution = format: physicochemical
[2] = test system: rats subjected to 60 min of CPB; test: recovery model of cardiopulmonary bypass (CPB) in the rat; format: in vivo
Description: For example, three groups of rats may be subjected to 60 min of normothermic (37.5 degrees C.) nonpulsatile cardiopulmonary bypass (CPB) using a roller pump and a membrane oxygenator. Group 1 rats (n=10) receive no treatment. Group 2 rats (n=10) are pretreated with low volume dantrolene IV, 2.5 mg/kg, and Group 3 rats (n=10) are pretreated with low volume dantrolene IV, 5.0 mg/kg. A fourth group, (Group 4) serve as sham operated controls (n=10). Neurologic outcome is assessed on days 1, 3, and 12 after CPB using standardized functional testing. Neurocognitive outcome, defined as the time (or latency) to finding a submerged platform in a Morris water maze (an indicator of visual-spatial learning and memory), is evaluated daily from post-CPB days 3-12. […]

rats = conditions: intraperitoneally to rats; cited from earlier work
patients = test: neurocognitive testing of patients undergoing coronary artery re-vascularization during cardiopulmonary bypass; format: in vivo, humans; conditions: 1.0 mg/kg of 5% colloidal dantrolene; 24 hours and six weeks post-op
Description: Prior to surgery, each patient would be given a battery of nine standard tests designed to measure cognitive function in four broad categories; attention and concentration; verbal memory; abstraction and visual orientation; and figure (numbers) memory. Patients would again administered the same tests 24 hours and six weeks post-operatively. Each assessment would be performed by the same investigator who would be blinded to the patient's study group assignment. At the time of the operation, each patient would be induced of general anesthesia according to a protocol utilizing a modified cardiac/narcotic technique. All agents would be administered on a weight based dose (mg/kg) whenever possible. Volatile anesthetic agents would be administered and regulated by the anesthesiologist via the endotracheal tube to maintain adequate blood and pulse pressures both pre and post bypass, and by the perfusionist during bypass to maintain pressures suitable for adequate tissue perfusion. A standardized protocol by which the operation is to be performed would be designed and applied to each patient enrolled in this study. […]

[3] = test system: apoptotic nuclei in the cortex of rats given 5 mg/kg kainic acid; conditions: cited from earlier work
[4] = doses as high as 7.5 mg/kg i.v.; cited from earlier work
solubility in water = format: physicochemical
neuronal cells = conditions: cited from earlier work
[5] = test system: rats subjected to 60 min of CPB; conditions: Ma et al.; cited from earlier work

Which “benefit in the treatment of Malignant Hyperthermia (MH)” value (Malignant Hyperthermia) does the source give for `O=C1CN(/N=C/c2ncc(-c3ccc(Br)cc3)o2)C(=O)N1` [azumolene] here?
The value was “limited benefit”.

For `O=C1CN(/N=C/c2ccc(-c3ccc([N+](=O)[O-])cc3)o2)C(O)=N1` [dantrolene], which “therapeutic index (LD50 / dose for 50% reduction of apoptotic nuclei)” value [1] is on record?
The value was 78.

What about the “toxicity induced by NMDA” value (cell culture) of the same compound?
The value was “inhibits”.

What about the “toxicity induced by glutamate” value (cell culture) of the same compound?
Its value is “inhibits”.

What about the “toxicity of quisqualate (QA)” value (cell culture) of the same compound?
The value was “inhibited”.

And the “dissolution compared with the sodium salt” value (dissolution; listed as Dantrolene free acid)?
The value was “slower and less reliable”.

What about the “dissolution compared with the sodium salt” value (dissolution; listed as free acid) of the same compound?
Its value is “significantly slower and more problematic than that of dantrolene sodium”.

What about the “attenuation of CPB-induced neurologic and neurocognitive dysfunction” value ([2]; 10.0 mg/kg IV 15 min prior to CPB) of the same compound?
Its value is “comparable to xenon”.

What about the “neurologic and neurocognitive outcome after CPB” value ([2]; pretreatment IV at both 2.5 mg/kg and 5.0 mg/kg, days 1-12) of the same compound?
Its value is “attenuates CPB associated neurologic and neurocognitive impairment”.

What about the “LD50 (dose yielding 50% lethality)” value (rats) of the same compound?
Its value is 780 mg/kg.

And the “CPB-induced neurologic and neurocognitive impairment in man” value (patients)?
Its value is “attenuates CPB-induced neurologic and neurocognitive impairment in man”.

And the “dose yielding 50% reduction of apoptotic nuclei in the cortex” value ([3]; i.p., rats given 5 mg/kg kainic acid)?
Its value is 10 mg/kg.

And the “kainic acid-mediated apoptosis mechanism” value ([3]; rat, in vivo)?
Its value is “inhibits”.

What about the cardiopulmonary depression [4] of the same compound?
The cardiopulmonary depression was “does not cause cardiopulmonary depression”.

Which solubility (solubility in water) does the source give for `O=C1CN(/N=C/c2ccc(-c3ccc([N+](=O)[O-])cc3)o2)C(O)=N1` [dantrolene sodium] here?
Its solubility is under 400 µg/mL.

With `N#Cc1cc2[nH]c(=O)c(=O)[nH]c2cc1[N+](=O)[O-]` [CNQX] as the compound, how does the “prevention of kainic-induced neurological damage” value (neuronal cells) read?
The value was “prevented”.

For `[Xe]` [xenon], which “neuroprotection in the rat CPB model” value [5] is on record?
Its value is “protective”.
